Laboratory results taken from patent US8217041B2, “Indene derivatives, their preparation and use as medicaments” (Laboratories del Sr. Esteve, S.A., priority 2005, dated 2012).
Where two headings read alike, the source gives them in different places.

Target: T1, 5HT6 human recombinant receptor (Homo sapiens, UniProt P50406)
T1 construct: purchased Receptor Biology; host or cells: HEK-293 cell membranes
Assay: Binding test to 5-HT6 receptors ([3H]-LSD displacement, HEK-293 cell membranes)
Details: for inhibition at 0.1 µM: read-out: % Inhibition 10^−7 M; for inhibition at 0.01 µM: read-out: % Inhibition 10^−8 M; for inhibition at 1 µM: compound concentration 10^−6 M; for Ki: inhibition constant by non-linear regression (EBDA/LIGAND), [3H]-LSD 2.7 nM
Experimental: Binding Test to 5-HT6 Receptors
Membranes of HEK-293 cells expressing the 5HT6 human recombinant receptor were supplied by Receptor Biology. In these membranes the receptor concentration is 2.18 pmol/mg protein and the protein concentration is 9.17 mg/ml. The experimental protocol follows the method of B. L. Roth et al. [B. L. Roth, S. C. Craigo, M. S. Choudhary, A. Uluer, F. J. Monsma, Y. Shen, H. Y. Meltzer, D. R. Sibley: Binding of Typical and Atypical Antipsychotic Agents to 5-Hydroxytryptamine-6 and Hydroxytriptamine-7 Receptors. The Journal of Pharmacology and Experimental Therapeutics, 1994, 268, 1403] with slight modifications. The commercial membrane is diluted (dilution 1:40) with the binding buffer: 50 mM Tris-HCl, 10 mM MgCl2, 0.5 mM EDTA (pH 7.4). The radioligand used is [^3H]-LSD at a concentration of 2.7 nM with a final volume of 200 μl. Incubation is initiated by adding 100 μl of the membrane suspension (≈22.9 μg membrane protein), and continues for 60 minutes at a temperature of 37° C. Incubation ends by fast filtration in a Harvester Brandel Cell through glass fibre filters manufactured by Schleicher & Schuell GF 3362 pre-treated with a 0.5% polyethylenimine solution. The filters are washed three times with three milliliters of Tris-HCl 50 mM pH 7.4 buffer. The filters are transferred to vials and to each vial 5 ml of liquid scintillation cocktail Ecoscint H is added. The vials are allowed to reach equilibrium for several hours before being counted in a Wallac Winspectral 1414 scintillation counter. Non-specific binding is determined in the presence of 100 μM serotonin. The tests are performed in triplicate. The inhibition constants (Ki, nM) are calculated by non-linear regression analysis using the program EBDA/LIGAND [Munson and Rodbard, Analytical Biochemistry, 1980, 107, 220].

[1] = compound concentration 10^−7 M, radioligand [3H]-LSD 2.7 nM, 60 min, 37° C.
[2] = compound concentration 10^−8 M, radioligand [3H]-LSD 2.7 nM, 60 min, 37° C.
[3] = radioligand [3H]-LSD 2.7 nM, 60 min, 37° C.

T1 sequence (P50406 whole entry): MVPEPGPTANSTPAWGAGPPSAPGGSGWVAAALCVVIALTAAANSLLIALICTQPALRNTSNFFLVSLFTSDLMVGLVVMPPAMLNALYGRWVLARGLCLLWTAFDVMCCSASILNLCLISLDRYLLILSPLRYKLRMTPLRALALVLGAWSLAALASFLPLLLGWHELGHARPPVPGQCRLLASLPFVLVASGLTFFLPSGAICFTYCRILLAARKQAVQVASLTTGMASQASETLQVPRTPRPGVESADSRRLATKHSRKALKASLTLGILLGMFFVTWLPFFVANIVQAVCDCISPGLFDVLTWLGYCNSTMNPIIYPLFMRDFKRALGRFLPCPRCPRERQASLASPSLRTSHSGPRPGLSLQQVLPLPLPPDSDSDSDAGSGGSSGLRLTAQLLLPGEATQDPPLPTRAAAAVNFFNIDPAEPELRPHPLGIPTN

| SMILES | inhibition at 0.1 µM [1] | inhibition at 0.01 µM [2] | inhibition at 1 µM [3] | Ki | inhibition at 0.1 µM | inhibition at 0.01 µM |
| --- | --- | --- | --- | --- | --- | --- |
| CC1=C(CCN2CCCC2)c2cc(NS(=O)(=O)c3ccc(N)cc3)ccc2C1 [Example 32, 4-Amino-N-[3-(2-pyrrolidin-1-ylethyl)-2-methyl-1H-inden-5-yl]benzene sulfonamide] | 63% | 26% |  |  |  |  |
| CC1=C(CCN2CCCC2)c2cc(NS(=O)(=O)c3ccc4ccccc4c3)ccc2C1 [Example 35, N-[2-Methyl-3-(2-pyrrolidin-1-ylethyl)-1H-inden-5-yl]naphthalene-2-sulfonamide] |  |  | 92% | 62.9 nM |  |  |
| CC1=C(CCN(C)C)c2cc(NS(=O)(=O)c3ccc4ccccc4c3)ccc2C1 [Example 34, N-[3-(2-Dimethylaminoethyl)-2-methyl-1H-inden-5-yl]naphthalene-2-sulfonamide] | 71% | 18% | 100% | 50.6 nM |  |  |
| CC1=C(CCN(C)C)c2cc(NS(=O)(=O)c3sc4ccc(Cl)cc4c3C)ccc2C1 [Example 20, N-[3-(2-Dimethylaminoethyl)-2-methyl-1H-inden-5-yl]-5-chloro-3-methylbenzo[b]thiophene-2-sulfonamide] | 42% | 13% |  |  |  |  |
| CC1=C(CCN(C)C)c2cc(NS(=O)(=O)c3ccc4ccccc4c3)ccc2/C1=C\c1ccccc1 [Example 33, N-[1(Z)-Benzylidene-3-(2-dimethylaminoethyl)-2-methyl-1H-inden-5-yl]naphthalene-2-sulfonamide] |  |  |  | 216 nM |  |  |
| CC1=C(CCN2CCCC2)c2cc(NS(=O)(=O)c3c(Cl)nc4sccn34)ccc2C1 [Example 29, N-[3-(2-Pyrrolidin-1-ylethyl)-2-methyl-1H-inden-5-yl]-6-chloroimidazo[2,1-b]thiazole-5-sulfonamide] | 82% | 53% |  |  |  |  |
| CC1=C(CCN(C)C)c2cc(NS(=O)(=O)c3c(Cl)nc4sccn34)ccc2C1 [Example 19, N-[3-(2-Dimethylaminoethyl)-2-methyl-1H-inden-5-yl]-6-chloroimidazo[2,1-b]thiazole-5-sulfonamide] |  |  | 97% | 4.8 nM |  |  |
| CN(C)CCC1=CC(C)(C)c2ccc(NS(=O)(=O)c3c(Cl)nc4sccn34)cc21 [Example 41, 6-Chloro-N-{3-[2-(dimethylamino)ethyl]-1,1-dimethyl-1H-inden-5-yl}imidazo[2,1-b] [1,3]thiazole-5-sulfonamide] | 24.5% | 9.4% |  |  |  |  |
| CC1=C(CCN2CCCC2)c2cccc(NS(=O)(=O)c3ccc4ccccc4c3)c2C1 [Example 36, N-[2-Methyl-1-(2-pyrrolidin-1-ylethyl)-3H-inden-4-yl]naphthalene-2-sulfonamide] |  |  | 72% | 157 nM |  |  |
| CC1=C(C2CCN(C)C2)c2cc(NS(=O)(=O)c3c(Cl)nc4sccn34)ccc2C1 (stereo not shown) [Example 45, 6-Chloro-N-[2-methyl-3-(1-methylpyrrolidin-3-yl)-1H-inden-5-yl]imidazo[2,1-b] [1,3]thiazole-5-sulfonamide] | 5.4% | 7.4% |  |  |  |  |
| CC1=C(CCN(C)C)c2cc(S(=O)(=O)Nc3cccc4ccccc34)ccc2C1 [Example 39, N-(Naphthalene-1-yl)-3-(2-dimethylaminoethyl)-2-methyl-1H-indene-5-sulfonamide] | 51% | 25% |  |  |  |  |
| Cc1c(S(=O)(=O)Nc2ccc3c(c2)C(CCN(C)C)=CC3(C)C)sc2ccc(Cl)cc12 [Example 42, 5-Chloro-N-{3-[2-(dimethylamino)ethyl]-1,1-dimethyl-1H-inden-5-yl}-3-methylbenzo[b]thiophene-2-sulfonamide] | 2.3% | -7.5% |  |  |  |  |
| CC1=C(CCN(C)C)c2cc(NS(=O)(=O)c3csc4ccccc34)ccc2C1 [Example 44, N-{3-[2-(Dimethylamino)ethyl]-2-methyl-1H-inden-5-yl}-1-benzothiophene-3-sulfonamide] | 88.3% | 53% |  |  |  |  |
| O=S(=O)(Nc1ccc2c(c1)C(CCN1CCCC1)=CC2)c1ccc2ccccc2c1 [Example 37, N-[3-(2-Pyrrolidin-1-ylethyl)-1H-inden-5-yl]naphthalene-2-sulfonamide] |  |  | 92% | 46.3 nM |  |  |
| CC1=C(C2CCCN(C)C2)c2cc(NS(=O)(=O)c3c(Cl)nc4sccn34)ccc2C1 (stereo not shown) [Example 46, 6-Chloro-N-[2-methyl-3-(1-methylpiperidin-3-yl)-1H-inden-5-yl]imidazo[2,1-b] [1,3]thiazole-5-sulfonamide] | 85.8% | 77.6% |  |  |  |  |
| CC1=C(CCO)c2cc(NS(=O)(=O)c3ccc4ccccc4c3)ccc2C1 [Example 40, N-[3-(2-Hydroxyethyl)-2-methyl-1H-inden-5-yl]naphthalene-2-sulfonamide] | 16% | 8% | 45% |  |  |  |
| CC1=C(CCN(C)C)c2cc(Cl)ccc2C1 [Example 47, 2-(5-Chloro-2-methyl-1H-inden-3-yl)-N,N-dimethylethanamine] |  |  |  |  | 8.9% | 16.2% |
| CC1=C(CCN(C)C)c2cc(NS(=O)(=O)c3cccc4ccccc34)ccc2C1 [Example 43, N-{3-[2-(Dimethylamino)ethyl]-2-methyl-1H-inden-5-yl}naphthalene-1-sulfonamide] | 78.4% | 32% |  |  |  |  |
| CC1=C(CCN2CCCC2)c2cc(NS(=O)(=O)c3sc4ccc(Cl)cc4c3C)ccc2C1 [Example 38, N-[2-Methyl-3-(2-pyrrolidin-1-ylethyl)-1H-inden-5-yl]-5-chloro-3-methylbenzo[b]thiophene-2-sulfonamide] |  |  | 100% | 20.2 nM |  |  |
